According to patent publication US11560391B2, “Sulfonylurea compounds as inhibitors of interleukin-1 activity” (Genentech, Inc., priority 2018, dated 2023):
Like-named read-outs stand apart in the source and are kept apart here.

Biological target: T1, NLRP3 inflammasome (Homo sapiens, UniProt Q96P20)
T1 construct: freshly isolated from human peripheral blood from healthy donors; StemCells Technologies; host or cells: primary human PBMCs
Assay: NLRP3 inflammasome activation assay in LPS-primed, nigericin-stimulated PBMCs, IL-1β release
Assay type: cell-based
Details: 10 μM nigericin
Description: Some of the following assays were used to determine the inhibitory activity of the compounds on the NLRP3 inflammasome using a common inflammasome activation stimuli-nigericin.
Human peripheral blood mononuclear cells (PBMCs), consisting of lymphocytes (T, B and NK cells), monocytes and dendritic cells, are freshly isolated from human peripheral blood from healthy donors. Cells are obtained through an IRB approved donor program by iXCells Biotechnologies where all the donors are tested for bacterial and viral infections. Cells are purified from peripheral blood using ficoll gradient centrifugation.
Fresh or cryopreserved PMBCs are seeded in V-bottom 96-well plate at 0.5-1×10^5 cells per well and incubated overnight at 37° C. with 5% CO2 in RPMI 1640 medium with GlutaMAX supplement, 4.5 g/L D-glucose, 10% Fetal Bovine Serum (FBS), […] Sodium Pyruvate, 1% Penicillin/Streptomycin, 10 mM HEPES and 0.05 mM of […]. Freshly isolated or cryopreserved KCs cells are seeded in flat-bottom 96-well plates at 0.6-1.5×10^5 cells/well and incubated overnight at 37° C., 5% CO2 in RPMI 1640 Medium with GlutaMAX supplement, FBS, 1% Penicillin/Streptomycin and 10 mM HEPES. The following day, the cells are primed with 100 ng/mL of lipopolysaccharides (LPS; Sigma Aldrich) in FBS-free RPMI 1640 for 3 h. After the priming step, the media is removed and PBMCs are pre-incubated with serial concentrations of test compounds (0.00017-10 uM) or vehicle (DMSO) for 30 min in FBS-free media prior to addition of the NLRP3 activator. Cells are then stimulated with 10 μM Nigericin (Sigma Aldrich; InvivoGen) for 1.5 h. Plates were centrifuged at 1,500 rpm for 3 minutes to pellet cells and supernatant was transferred into new plates for subsequent experiments.
For ELISA assays cells are seeded into 96-well plates. Post study, supernatants are removed and the levels of mature IL-1β, IL18 and TNFα (Quantikine ELISA, R&D systems) are measured in cell conditioned media by ELISA according to manufacturer's instructions.
Human frozen PBMCs were purchased from StemCells Technologies. Cells were rapidly thawed in 37° C. water bath and resuspended in fresh assay media consisting of RPMI 1640 Medium containing 1% sodium pyruvate, 10 mM HEPES, 2.5 g/L glucose and 55 μM 2-Mercaptoethanol. Cell density was adjusted to 8.1×10^5 cells/mL. Cells were primed by adding lipopolysaccharide (Invivogen Ultrapure lipopolysaccharide from E. coli, tlrl-3pelps) at a final concentration of 100 ng/mL in cell suspension. 37 μL of cell suspension with LPS was seeded per well of a 384 well plate and incubated for 3 hours at 37° C. and 5% CO2. After priming, PBMCs were preincubated with serially diluted test compounds with starting concentration of 40 μM followed by 2-fold dilution for a 20-point curve or vehicle (DMSO) for 30 min in assay media at 37° C. and 5% CO2. Cells were then stimulated with 10 μM nigericin (Invivogen, tlrl-nig-5) for 90 min at 37° C. and 5% CO2 to activate NLRP3 dependent inflammasome pathway and IL-1β release in cell culture supernatant. Cells were centrifuged at 1200 RPM for 1 min and 40 μL of supernatant was transferred into fresh plates and stored at −80° C. until IL-1β analysis.
16 μL of supernatant was added to white 384 well HTRF plates, followed by addition of 4 μL of HTRF cocktail in each well. Plates were quickly centrifuged, sealed and incubated overnight at room temperature. Next day, HTRF signal was read on a Pherastar and ratio of 665/620 was calculated based on manufacturer's protocol to obtain concentration of IL-1β in cell culture supernatant.

[1] = LPS 100 ng/mL priming, read-out: IL-1B pIC50 (converted)
[2] = PBMC, LPS priming, read-out: PMBC IL-1β IC50
[3] = IL-1B pIC50 (μM), LPS 100 ng/mL priming

T1 sequence (Q96P20 whole entry): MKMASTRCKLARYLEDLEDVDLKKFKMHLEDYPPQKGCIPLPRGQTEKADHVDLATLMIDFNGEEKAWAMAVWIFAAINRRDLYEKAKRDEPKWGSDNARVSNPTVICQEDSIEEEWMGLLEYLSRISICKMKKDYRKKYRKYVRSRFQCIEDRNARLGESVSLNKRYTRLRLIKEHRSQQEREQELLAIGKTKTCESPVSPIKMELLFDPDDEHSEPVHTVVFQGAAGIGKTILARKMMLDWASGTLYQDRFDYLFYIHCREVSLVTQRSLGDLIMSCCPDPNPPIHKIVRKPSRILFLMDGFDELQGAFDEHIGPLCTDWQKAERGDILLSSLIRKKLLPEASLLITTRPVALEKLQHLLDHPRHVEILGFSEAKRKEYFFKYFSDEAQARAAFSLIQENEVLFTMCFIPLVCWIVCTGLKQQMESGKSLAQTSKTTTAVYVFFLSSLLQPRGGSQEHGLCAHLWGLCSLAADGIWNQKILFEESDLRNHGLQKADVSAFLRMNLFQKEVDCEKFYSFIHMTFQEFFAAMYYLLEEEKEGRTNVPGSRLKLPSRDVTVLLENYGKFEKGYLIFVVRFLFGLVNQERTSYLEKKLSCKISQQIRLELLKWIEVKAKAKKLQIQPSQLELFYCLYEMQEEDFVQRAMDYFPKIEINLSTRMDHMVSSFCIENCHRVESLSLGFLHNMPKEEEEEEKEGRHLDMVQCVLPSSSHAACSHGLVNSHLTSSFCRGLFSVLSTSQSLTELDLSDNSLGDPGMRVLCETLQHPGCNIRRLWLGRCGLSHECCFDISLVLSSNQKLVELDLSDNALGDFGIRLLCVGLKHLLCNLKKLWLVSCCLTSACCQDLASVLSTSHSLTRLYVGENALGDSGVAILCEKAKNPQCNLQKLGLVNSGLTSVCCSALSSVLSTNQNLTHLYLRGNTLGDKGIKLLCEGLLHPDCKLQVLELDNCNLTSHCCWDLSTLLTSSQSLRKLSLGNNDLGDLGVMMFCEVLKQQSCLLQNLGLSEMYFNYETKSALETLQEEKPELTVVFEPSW

IC50 [1] [µM] | IC50 [2] [µM] | SMILES | further results
> 10 | – | CC1CCCC(C)N1NC(=O)NS(=O)(=O)c1cnn2c1OCCC2 (stereo not shown) | –
> 10 | – | O=C(NN1CCOc2ccccc21)NS(=O)(=O)c1cnn2c1OCCC2 | –
> 10 | – | O=C(NN1CC2CCCC2C1)NS(=O)(=O)c1cnn2c1OCCC2 (stereo not shown) | –
– | > 10 | CC1CCCC(C)N1NC(=O)NS(=O)(=O)c1cnn2c1OCCC2 (mixture of isomers) [Example 7, N-((2,6-dimethylpiperidin-1-yl)carbamoyl)-6,7-dihydro-5H-pyrazolo[5,1-b][1,3]oxazine-3-sulfonamide] | –
– | > 10 | O=C(NC1CCOc2ccccc21)NS(=O)(=O)c1cnn2c1OCCC2 (racemic) [Example 9, N-(chroman-4-ylcarbamoyl)-6,7-dihydro-5H-pyrazolo[5,1-b][1,3]oxazine-3-sulfonamide] | –
– | > 10 | O=C(NN1CC2CCCC2C1)NS(=O)(=O)c1cnn2c1OCCC2 (single isomer, unassigned) [Example 13a, N-((hexahydrocyclopenta[c]pyrrol-2(1H)-yl)carbamoyl)-6,7-dihydro-5H-pyrazolo[5,1-b][1,3]oxazine-3-sulfonamide] | –
– | > 10 | CC1(C)CCc2ccccc2C1NC(=O)NS(=O)(=O)c1cnn2c1OCCC2 (stereo not shown) [Example 1, N-((2,2-dimethyl-1,2,3,4-tetrahydronaphthalen-1-yl)carbamoyl)-6,7-dihydro-5H-pyrazolo[5,1-b][1,3]oxazine-3-sulfonamide] | –
– | > 10 | O=C(NC1c2ccccc2CC12CCOCC2)NS(=O)(=O)c1cnn2c1OCCC2 (stereo not shown) [Example 2, N-((1,2′,3,3′,5′,6′-hexahydrospiro[indene-2,4′-pyran]-1-yl)carbamoyl)-6,7-dihydro-5H-pyrazolo[5,1-b][1,3]oxazine-3-sulfonamide] | –
– | > 10 | O=C(NC1c2ccccc2-c2ccccc21)NS(=O)(=O)c1cnn2c1OCCC2 [Example 5, N-((9H-fluoren-9-yl)carbamoyl)-6,7-dihydro-5H-pyrazolo[5,1-b][1,3]oxazine-3-sulfonamide] | –
– | > 10 | CC1Cc2ccccc2C1NC(=O)NS(=O)(=O)c1cnn2c1OCCC2 (stereo not shown) [Example 6, N-((2-methyl-2,3-dihydro-1H-inden-1-yl)carbamoyl)-6,7-dihydro-5H-pyrazolo[5,1-b][1,3]oxazine-3-sulfonamide] | –
– | > 10 | O=C(Nc1c(-c2ccccc2)nc2ccccn12)NS(=O)(=O)c1cnn2c1OCCC2 [Example 10, N-((2-phenylimidazo[1,2-a]pyridin-3-yl)carbamoyl)-6,7-dihydro-5H-pyrazolo[5,1-b][1,3]oxazine-3-sulfonamide] | –
– | > 10 | O=C(NC1(c2ccccc2)CCCCCC1)NS(=O)(=O)c1cnn2c1OCCC2 [Example 12, N-((1-phenylcycloheptyl)carbamoyl)-6,7-dihydro-5H-pyrazolo[5,1-b][1,3]oxazine-3-sulfonamide] | –
– | > 10 | O=C(NN1CCCCCC1)NS(=O)(=O)c1cnn2c1OCCC2 [Example 14, N-(azepan-1-ylcarbamoyl)-6,7-dihydro-5H-pyrazolo[5,1-b][1,3]oxazine-3-sulfonamide] | –
– | > 10 | O=C(NC(c1ccccc1)c1ccccc1)NS(=O)(=O)c1cnn2c1OCCC2 [Example 15, N-(benzhydrylcarbamoyl)-6,7-dihydro-5H-pyrazolo[5,1-b][1,3]oxazine-3-sulfonamide] | –
– | > 10 | Cc1ccc(Br)c(NC(=O)NS(=O)(=O)c2cnn3c2OCCC3)n1 [Example 20, N-((3-bromo-6-methylpyridin-2-yl)carbamoyl)-6,7-dihydro-5H-pyrazolo[5,1-b][1,3]oxazine-3-sulfonamide] | –
– | > 10 | CC(C)c1nn(C)c(C(C)C)c1NC(=O)NS(=O)(=O)c1cnn2c1OCCC2 [Example 26, N-((3,5-diisopropyl-1-methyl-1H-pyrazol-4-yl)carbamoyl)-6,7-dihydro-5H-pyrazolo[5,1-b][1,3]oxazine-3-sulfonamide] | –
– | > 10 | C=C(C)c1cncc(C(=C)C)c1NC(=O)NS(=O)(=O)c1cnn2c1OCCC2 [Example 27, N-((3,5-di(prop-1-en-2-yl)pyridin-4-yl)carbamoyl)-6,7-dihydro-5H-pyrazolo[5,1-b][1,3]oxazine-3-sulfonamide] | –
– | > 10 | O=C(Nc1c2c(n3c1CCC3)CCCC2=O)NS(=O)(=O)c1cnn2c1OCCC2 [Example 29, N-((8-oxo-2,3,5,6,7,8-hexahydro-1H-pyrrolo[1,2-a]indol-9-yl)carbamoyl)-6,7-dihydro-5H-pyrazolo[5,1-b][1,3]oxazine-3-sulfonamide] | –
– | > 10 | CC(C)(C)c1cc(NC(=O)NS(=O)(=O)c2cnn3c2OCCC3)n(C(C)(C)C)n1 [Example 36, N-((1,3-di-tert-butyl-1H-pyrazol-5-yl)carbamoyl)-6,7-dihydro-5H-pyrazolo[5,1-b][1,3]oxazine-3-sulfonamide, ammonia] | –

IC50 [1] [µM] | IC50 [2] [µM] | SMILES | further results
– | > 10 | Cc1cc(NC(=O)NS(=O)(=O)c2cnn3c2OCCC3)n(C(C)C)n1 [Example 43, N-((1-isopropyl-3-methyl-1H-pyrazol-5-yl)carbamoyl)-6,7-dihydro-5H-pyrazolo[5,1-b][1,3]oxazine-3-sulfonamide] | –
– | > 10 | CC1(C)COc2c(S(=O)(=O)NC(=O)NC3CCCCc4ccccc43)cnn2C1 (stereo not shown) [Example 46, 6,6-dimethyl-N-((6,7,8,9-tetrahydro-5H-benzo[7]annulen-5-yl)carbamoyl)-6,7-dihydro-5H-pyrazolo[5,1-b][1,3]oxazine-3-sulfonamide] | –
> 10 | – | CC1(C)CCc2ccccc2C1NC(=O)NS(=O)(=O)c1cnn2c1OCCC2 (stereo not shown) [drawing 366] | –
> 10 | – | O=C(NC1c2ccccc2CC12CCOCC2)NS(=O)(=O)c1cnn2c1OCCC2 (stereo not shown) [drawing 367] | –
> 10 | – | O=C(NC1c2ccccc2-c2ccccc21)NS(=O)(=O)c1cnn2c1OCCC2 [drawing 370] | –
> 10 | – | CC1Cc2ccccc2C1NC(=O)NS(=O)(=O)c1cnn2c1OCCC2 (stereo not shown) [drawing 371] | –
> 10 | – | O=C(Nc1c(-c2ccccc2)nc2ccccn12)NS(=O)(=O)c1cnn2c1OCCC2 [drawing 375] | –
> 10 | – | O=C(NC1(c2ccccc2)CCCCCC1)NS(=O)(=O)c1cnn2c1OCCC2 [drawing 377] | –
> 10 | – | O=C(NN1CCCCCC1)NS(=O)(=O)c1cnn2c1OCCC2 [drawing 379] | –
> 10 | – | O=C(NC(c1ccccc1)c1ccccc1)NS(=O)(=O)c1cnn2c1OCCC2 [drawing 380] | –
> 10 | – | CC(C)c1cc(Cl)nc(NC(=O)NS(=O)(=O)c2cnn3c2OCCC3)n1 [drawing 381] | –
> 10 | – | O=C(Nc1nc(-c2ccccc2)cc(C(F)(F)F)n1)NS(=O)(=O)c1cnn2c1OCCC2 [drawing 382] | –
– | – | COc1cc(OC)nc(NC(=O)NS(=O)(=O)c2cnn3c2OCCC3)n1 [drawing 383] | IC50 [3]: > 10 µM
– | – | COc1cc(C)nc(NC(=O)NS(=O)(=O)c2cnn3c2OCCC3)n1 [drawing 384] | IC50 [3]: > 10 µM
> 10 | – | Cc1ccc(Br)c(NC(=O)NS(=O)(=O)c2cnn3c2OCCC3)n1 [drawing 385] | –
> 10 | – | Cc1cc(C2CC2)nc(NC(=O)NS(=O)(=O)c2cnn3c2OCCC3)n1 [drawing 386] | –
> 10 | – | CC(C)(C)c1cc(C(C)(C)C)nc(NC(=O)NS(=O)(=O)c2cnn3c2OCCC3)n1 [drawing 387] | –
> 10 | – | O=C(Nc1nc(-c2ccccc2)cc2c1CCC2)NS(=O)(=O)c1cnn2c1OCCC2 [drawing 388] | –
> 10 | – | Cc1nc(NC(=O)NS(=O)(=O)c2cnn3c2OCCC3)nc2c1CCCC2 [drawing 389] | –

SMILES | IC50 [1] [µM] | IC50 [2] [µM] | further results
O=C(Nc1nc(Cl)cc(Cl)n1)NS(=O)(=O)c1cnn2c1OCCC2 [drawing 369] | > 10 | – | –
Cc1cc(C)nc(NC(=O)NS(=O)(=O)c2cnn3c2OCCC3)n1 [drawing 390] | > 10 | – | –
